Results reported in patent US8859580B2 (Boehringer Ingelheim International GmbH, priority 2007, dated 2014).

Each compound was assayed against T1, 11β-HSD1 (Homo sapiens, UniProt P28845) (assay: In vitro inhibition of 11β-HSD1, HTRF detection of cortisol generated from cortisone by human liver microsomes). Conditions: 11β-HSD IC50 (nM), 1 hour at 37° C., pH 6.0, NADPH 200 μM, cortisone 80 nM, inhibition relative to carbenoxolone signal.
T1 construct: detecting cortisol generated from cortisterone by human liver microsomes; from tissue; host or cells: human liver microsomes
T1 sequence (P28845 whole entry): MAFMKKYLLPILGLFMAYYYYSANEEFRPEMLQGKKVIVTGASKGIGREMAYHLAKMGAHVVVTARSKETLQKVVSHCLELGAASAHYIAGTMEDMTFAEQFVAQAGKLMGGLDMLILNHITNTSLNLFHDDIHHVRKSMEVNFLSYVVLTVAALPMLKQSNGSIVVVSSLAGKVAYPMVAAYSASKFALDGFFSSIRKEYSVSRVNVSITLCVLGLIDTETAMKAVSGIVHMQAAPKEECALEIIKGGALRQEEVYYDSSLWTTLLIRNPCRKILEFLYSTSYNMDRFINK
Assay type: biochemical
Method in brief: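 Inhibition expressed against the carbenoxolone signal and fitted to IC50 curves. Readout: HTRF competition between microsomal cortisol and XL665-labelled cortisol for Eu-cryptate anti-cortisol antibody (typically 2 h), with emission ratio 665/615 calibrated to cortisol concentration.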

In order of rising IC50:
1. C[C@@H]1[C@H]2Cc3cc4nc[nH]c4cc3[C@]1(C)CCN2C(=O)c1ccc2nc[nH]c2c1 [Example 224, (3H-Benzoimidazol-5-yl)-[(6R,10R,12S)-5,6,7,8,9,10-hexahydro-10,12-dimethyl-6,10-methano-1H-imidazo[5,4-i][3]benzazocin-7-yl]-methanone]  21 nM
2. Cc1nc2cc3c(cc2[nH]1)[C@]1(C)CCN(C(=O)c2ccc4nc[nH]c4c2)[C@H](C3)C1(C)C [Example 238, (3H-Benzoimidazol-5-yl)-[(6R,10S)-5,6,7,8,9,10-hexahydro-2,10,12,12-tetramethyl-6,10-methano-1H-imidazo[5,4-i][3]benzazocin-7-yl]-methanone]  24 nM
3. CC1(C)[C@H]2Cc3cc4nc[nH]c4cc3[C@]1(C)CCN2C(=O)c1ccc2nc[nH]c2c1 [Example 239, (3H-Benzoimidazol-5-yl)-[(6R,10S)-5,6,7,8,9,10-hexahydro-10,12,12-trimethyl-6,10-methano-1H-imidazo[5,4-i][3]benzazocin-7-yl]-methanone]  24 nM
4. C[C@@H]1[C@H]2Cc3cc(C#N)ccc3[C@]1(C)CCN2C(=O)c1ccc2nc[nH]c2c1 [Example 227, (2R,6R,11S)-3-(3H-Benzoimidazole-5-carbonyl)-6,11-dimethyl-1,2,3,4,5,6-hexahydro-2,6-methano-benzo[d]azocine-9-carbonitrile]  25 nM
5. Cn1cnc2cc3c(cc21)C[C@H]1N(C(=O)c2ccc4nc[nH]c4c2)CC[C@]3(C)C1(C)C [Example 240, (3H-Benzoimidazol-5-yl)-[(6R,10S)-5,6,7,8,9,10-hexahydro-3,10,12,12-tetramethyl-6,10-methano-imidazo[4,5-i][3]benzazocin-7-yl]-methanone]  51 nM
6. CC(C)(O)c1ccc2c(c1)[C@]1(C)CCN(C(=O)c3ccc4nc[nH]c4c3)[C@H](C2)C1(C)C [Example 229, (3H-Benzoimidazol-5-yl)-[(2R,6S)-8-(1-hydroxy-1-methyl-ethyl)-6,11,11-trimethyl-1,2,5,6-tetrahydro-4H-2,6-methano-benzo[d]azocin-3-yl]-methanone]  68 nM
7. CC1(C)[C@H]2Cc3cc4nccnc4cc3[C@]1(C)CCN2C(=O)c1ccc2nc[nH]c2c1 [Example 235, (3H-Benzoimidazol-5-yl)-[(7R,11S)-6,7,8,9,10,11-hexahydro-11,13,13-trimethyl-6,10-methano-pyrazino[2,3-i][3]benzazocin-8-yl]-methanone]  95 nM
8. Cc1cc(C(=O)N2CC[C@@]3(C)c4cccc(O)c4C[C@@H]2C3(C)C)cc2nc[nH]c12 [Example 225, [(2R,6S)-10-Hydroxy-6,11,11-trimethyl-1,2,5,6-tetrahydro-4H-2,6-methano-benzo[d]azocin-3-yl]-(7-methyl-1H-benzoimidazol-5-yl)-methanone]  98 nM
9. C[C@@H]1[C@H]2Cc3cc(C#N)c(O)cc3[C@]1(C)CCN2C(=O)c1ccc2nc[nH]c2c1 [Example 223, (2R,6R,11S)-3-(3H-Benzoimidazole-5-carbonyl)-8-hydroxy-6,11-dimethyl-1,2,3,4,5,6-hexahydro-2,6-methano-benzo[d]azocine-9-carbonitrile]  106 nM
10. CCn1cc(C(=O)N2CC[C@@]3(C)c4cccc(O)c4C[C@@H]2C3(C)C)c2ccccc21 [Example 222, (1-Ethyl-1H-indol-3-yl)-[(2R,6S)-10-hydroxy-6,11,11-trimethyl-1,2,5,6-tetrahydro-4H-2,6-methano-benzo[d]azocin-3-yl]-methanone]  124 nM
11. C[C@@H]1[C@H]2Cc3ccc(-c4ncon4)cc3[C@]1(C)CCN2C(=O)c1ccc2nc[nH]c2c1 [Example 232, (3H-Benzoimidazol-5-yl)-[(2R,6R,11S)-6,11-dimethyl-8-[1,2,4]oxadiazol-3-yl-1,2,5,6-tetrahydro-4H-2,6-methano-benzo[d]azocin-3-yl]-methanone]  132 nM
12. CC1(C)[C@H]2Cc3ccc(S(C)(=O)=O)cc3[C@]1(C)CCN2C(=O)c1ccc2nc[nH]c2c1 [Example 233, (3H-Benzoimidazol-5-yl)-[(2R,6S)-8-methanesulfonyl-6,11,11-trimethyl-1,2,5,6-tetrahydro-4H-2,6-methano-benzo[d]azocin-3-yl)-methanone]  144 nM
13. Cc1nc(-c2ccc3c(c2)[C@]2(C)CCN(C(=O)c4ccc5nc[nH]c5c4)[C@H](C3)[C@H]2C)no1 [Example 231, (3H-Benzoimidazol-5-yl)-[(2R,6R,11S)-6,11-dimethyl-8-(5-methyl-[1,2,4]oxadiazol-3-yl)-1,2,5,6-tetrahydro-4H-2,6-methano-benzo[d]azocin-3-yl]-methanone]  146 nM
14. CC1(C)[C@H]2Cc3c(O)cccc3[C@]1(C)CCN2C(=O)c1n[nH]c2c1CCCC2 [Example 219, [(2R,6S)-10-Hydroxy-6,11,11-trimethyl-1,2,5,6-tetrahydro-4H-2,6-methano-benzo[d]azocin-3-yl]-(4,5,6,7-tetrahydro-1H-indazol-3-yl)-methanone]  160 nM
15. Cn1cnc2cc3c(cc21)[C@]1(C)CCN(C(=O)c2ccc4nc[nH]c4c2)[C@H](C3)C1(C)C [Example 241, (3H-Benzoimidazol-5-yl)-[(6R,10S)-5,6,7,8,9,10-hexahydro-1,10,12,12-tetramethyl-6,10-methano-imidazo[5,4-i][3]benzazocin-7-yl]-methanone]  204 nM
16. C[C@@H]1[C@H]2Cc3ccc(-c4nnn[nH]4)cc3[C@]1(C)CCN2C(=O)c1ccc2nc[nH]c2c1 [Example 228, (2R,6R,11S)-(3H-Benzoimidazol-5-yl)-[6,11-dimethyl-8-(1H-tetrazol-5-yl)-1,2,5,6-tetrahydro-4H-2,6-methano-benzo[d]azocin-3-yl]-methanone]  236 nM
17. CC1(C)[C@H]2Cc3c(O)cccc3[C@]1(C)CCN2C(=O)c1csc2ccccc12 [Example 217, Benzo[b]thiophen-3-yl-[(2R,6S)-10-hydroxy-6,11,11-trimethyl-1,2,5,6-tetrahydro-4H-2,6-methano-benzo[d]azocin-3-yl]-methanone]  410 nM
18. CC1(C)[C@H]2Cc3c(O)cccc3[C@]1(C)CCN2C(=O)c1n[nH]c2c1CCC2 [Example 220, [(2R,6S)-10-Hydroxy-6,11,11-trimethyl-1,2,5,6-tetrahydro-4H-2,6-methano-benzo[d]azocin-3-yl]-(1,4,5,6-tetrahydro-cyclopentapyrazol-3-yl)-methanone]  549 nM
19. CN(C)S(=O)(=O)c1ccc2c(c1)C[C@H]1N(C(=O)c3ccc4nc[nH]c4c3)CC[C@]2(C)C1(C)C [Example 237, (2R,6S)-3-(3H-Benzoimidazole-5-carbonyl)-6,11,11-trimethyl-1,2,3,4,5,6-hexahydro-2,6-methano-benzo[d]azocine-9-sulfonic acid dimethylamide]  916 nM
20. N#CC12CCN(C(=O)c3ccc4nc[nH]c4c3)C(Cc3ccc(O)cc31)C2 (stereo not shown) [Example 226, 3-(3H-Benzoimidazole-5-carbonyl)-8-hydroxy-2,3,4,5-tetrahydro-1H-2,6-methano-benzo[d]azocine-6-carbonitrile]  1410 nM
21. CC1(C)[C@H]2Cc3c(O)cccc3[C@]1(C)CCN2C(=O)c1ccnn1-c1ccccc1 [Example 216, [(2R,6S)-10-Hydroxy-6,11,11-trimethyl-1,2,5,6-tetrahydro-4H-2,6-methano-benzo[d]azocin-3-yl]-(2-phenyl-2H-pyrazol-3-yl)-methanone]  1720 nM
22. Cc1cc(C(=O)N2CC[C@@]3(C)c4cccc(O)c4C[C@@H]2C3(C)C)n(C)n1 [Example 215, (2,5-Dimethyl-2H-pyrazol-3-yl)-[(2R,6S)-10-hydroxy-6,11,11-trimethyl-1,2,5,6-tetrahydro-4H-2,6-methano-benzo[d]azocin-3-yl]-methanone]  1730 nM
23. CC1(C)[C@H]2Cc3c(O)cccc3[C@]1(C)CCN2C(=O)c1cc(-c2ccccc2)n[nH]1 [Example 221, [(2R,6S)-10-Hydroxy-6,11,11-trimethyl-1,2,5,6-tetrahydro-4H-2,6-methano-benzo[d]azocin-3-yl]-(5-phenyl-2H-pyrazol-3-yl)-methanone]  2430 nM
24. CC1(C)[C@H]2Cc3c(O)cccc3[C@]1(C)CCN2C(=O)c1cncn1-c1ccccc1 [Example 218, [(2R,6S)-10-Hydroxy-6,11,11-trimethyl-1,2,5,6-tetrahydro-4H-2,6-methano-benzo[d]azocin-3-yl]-(3-phenyl-3H-imidazol-4-yl)-methanone]  2710 nM
25. O=C(c1ccc2nc[nH]c2c1)N1CCC2(C(=O)O)CC1Cc1ccc(O)cc12 (stereo not shown) [Example 213, 3-(3H-Benzoimidazole-5-carbonyl)-8-hydroxy-2,3,4,5-tetrahydro-1H-2,6-methano-benzo[d]azocine-6-carboxylic acid]  2970 nM
26. CC1(C)[C@H]2Cc3c(cccc3S(C)(=O)=O)[C@]1(C)CCN2C(=O)c1ccc2nc[nH]c2c1 [Example 234, (3H-Benzoimidazol-5-yl)-[(2R,6S)-10-methanesulfonyl-6,11,11-trimethyl-1,2,5,6-tetrahydro-4H-2,6-methano-benzo[d]azocin-3-yl)-methanone]  3120 nM
27. NC(=O)C12CCN(C(=O)c3ccc4nc[nH]c4c3)C(Cc3ccc(O)cc31)C2 (stereo not shown) [Example 214, 3-(3H-Benzoimidazole-5-carbonyl)-8-hydroxy-2,3,4,5-tetrahydro-1H-2,6-methano-benzo[d]azocine-6-carboxylic acid amide]  5710 nM

Same assay, conditions: 1 hour at 37° C., pH 6.0, NADPH 200 μM, cortisone 80 nM, inhibition relative to carbenoxolone signal, read-out: 11β-HSD IC50

`C[C@H]1[C@H]2CC3=CC(C#N)CC=C3[C@]1(C)CCN2C(=O)c1ccc2nc[nH]c2c1` (stereo partly drawn) [Example 236, (2R,6R,11R)-3-(3H-Benzoimidazole-5-carbonyl)-6,11-dimethyl-1,2,3,4,5,6,8,9-octahydro-2,6-methano-benzo[d]azocine-9-carbonitrile] gave an IC50 of 189 nM.
